Results as given in patent publication US9951040B2, “1,3,5 -triazine based PI3K inhibitors as anticancer agents and a process for the preparation thereof” (Council of Scientific and Industrial Research, priority 2014, dated 2018).
Like-named read-outs stand apart in the source and are kept apart here.

Columns and labels:
PI3K alpha = PI3K alpha (Homo sapiens, UniProt P42336); experiment: PI3K-α assay (ADP-Glo enzyme inhibition); type: biochemical; conditions: at 500 nm
Procedure: Compounds were evaluated for their ability to inhibit class I PI3-kinase enzyme alpha as given below. PI3K-α Assay: PI3K alpha (diluted in 12.5 mM Glycine-NaOH (pH 8.5), 50 mM KCl, 2.5 mM MgCl2, 1 mM DTT, 0.05% CHAPS) is assayed in total volume of 20 ul containing 12.5 mM glycine-NaOH (pH 8.5), 50 mM KCl, 2.5 mM MgCl2, 1 mM DTT, 0.05% CHAPS, 0.01 mM ATP and 0.05 mM diC8 PIP2. The enzyme is assayed for 80 min after which 20 ul of ADP-Glo reagent is added. After a further incubation of 40 min, 40 ul of Kinase Detection Buffer is added. The assays are incubated for 40 min and then read on PerkinElmer Envision for 1 sec/well.

MDA-MB231 Cell line = experiment: MTT cell proliferation assay, MDA-MB231; type: cell-based; conditions: Homo sapiens, MDA-MB-231, 120 h, 5 days
Procedure: (§1) Human breast cancer cell lines MDAMB231, MFC-7 and human prostate carcinoma cell line PC-3 were obtained from European Collection of Cell Cultures (ECACC). Cells were grown in […] medium supplemented with 10% fetal bovine serum (FBS), penicillin (100 units/ml), streptomycin (100 μg/ml), L-glutamine (0.3 mg/ml), sodium pyruvate ([…]), and NaHCO3 (2 mg/ml). Cells were grown in CO2 incubator (Thermocon Electron Corporation, USA) at 37° C. in an atmosphere of 95% air and 5% CO2 with 98% humidity. Different molecules were dissolved in DMSO and were delivered to cell cultures in complete medium.
(§2) MTT assay was done to determine the viability of the cells and was done as described previously (Kumar et al, 2013). Briefly, 6×10^3 were seeded in 96 well plates and were treated with different concentrations of different molecules for 5 days. 20 μl of MTT dye (2.5 mg/ml) was added 3 h before the termination of the experiment. Formazen crystals were dissolved in 150 μl of DMSO and OD was measured at 570 nm.

MCF-7 Cell line = experiment: MTT cell proliferation assay, MCF-7; type: cell-based; conditions: Homo sapiens, MCF7, 120 h, 5 days
Procedure: as §1, §2

PC-3 Cell line = experiment: MTT cell proliferation assay, PC-3; type: cell-based; conditions: Homo sapiens, PC-3, 120 h, 5 days
Procedure: as §1, §2

[1] = read-out: In vitro PI3K α % of inhibition
[2] = read-out: inhibition against PI3K alpha

PI3K alpha, sequence (P42336 whole entry, species assumed): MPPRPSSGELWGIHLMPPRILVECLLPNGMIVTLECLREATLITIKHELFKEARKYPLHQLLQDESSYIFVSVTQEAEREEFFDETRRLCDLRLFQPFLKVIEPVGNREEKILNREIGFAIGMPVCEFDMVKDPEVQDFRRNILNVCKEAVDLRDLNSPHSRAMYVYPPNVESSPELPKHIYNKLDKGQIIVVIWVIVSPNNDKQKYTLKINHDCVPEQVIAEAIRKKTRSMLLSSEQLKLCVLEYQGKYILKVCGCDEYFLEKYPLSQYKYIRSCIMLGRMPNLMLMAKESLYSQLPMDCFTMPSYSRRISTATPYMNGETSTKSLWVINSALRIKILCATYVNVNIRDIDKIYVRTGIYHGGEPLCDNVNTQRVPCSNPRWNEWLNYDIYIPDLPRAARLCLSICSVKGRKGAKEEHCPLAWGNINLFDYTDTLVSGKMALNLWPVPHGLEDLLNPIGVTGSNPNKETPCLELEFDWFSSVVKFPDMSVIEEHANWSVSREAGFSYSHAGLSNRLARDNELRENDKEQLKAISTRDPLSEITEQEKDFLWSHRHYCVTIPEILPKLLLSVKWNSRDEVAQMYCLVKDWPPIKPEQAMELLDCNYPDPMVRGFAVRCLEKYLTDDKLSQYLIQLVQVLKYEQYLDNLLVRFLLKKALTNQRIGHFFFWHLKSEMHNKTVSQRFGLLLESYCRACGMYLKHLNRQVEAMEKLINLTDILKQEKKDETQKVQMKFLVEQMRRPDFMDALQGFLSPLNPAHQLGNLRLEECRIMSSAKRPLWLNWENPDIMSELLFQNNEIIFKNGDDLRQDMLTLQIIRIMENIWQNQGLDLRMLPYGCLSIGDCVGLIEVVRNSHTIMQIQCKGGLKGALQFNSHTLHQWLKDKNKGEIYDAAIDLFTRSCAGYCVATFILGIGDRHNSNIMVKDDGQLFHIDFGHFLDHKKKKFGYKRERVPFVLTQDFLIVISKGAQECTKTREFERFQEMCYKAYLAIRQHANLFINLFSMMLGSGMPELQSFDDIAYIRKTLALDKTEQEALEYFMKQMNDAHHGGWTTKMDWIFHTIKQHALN
PI3K alpha, sequence (P27986 whole entry partner, species assumed): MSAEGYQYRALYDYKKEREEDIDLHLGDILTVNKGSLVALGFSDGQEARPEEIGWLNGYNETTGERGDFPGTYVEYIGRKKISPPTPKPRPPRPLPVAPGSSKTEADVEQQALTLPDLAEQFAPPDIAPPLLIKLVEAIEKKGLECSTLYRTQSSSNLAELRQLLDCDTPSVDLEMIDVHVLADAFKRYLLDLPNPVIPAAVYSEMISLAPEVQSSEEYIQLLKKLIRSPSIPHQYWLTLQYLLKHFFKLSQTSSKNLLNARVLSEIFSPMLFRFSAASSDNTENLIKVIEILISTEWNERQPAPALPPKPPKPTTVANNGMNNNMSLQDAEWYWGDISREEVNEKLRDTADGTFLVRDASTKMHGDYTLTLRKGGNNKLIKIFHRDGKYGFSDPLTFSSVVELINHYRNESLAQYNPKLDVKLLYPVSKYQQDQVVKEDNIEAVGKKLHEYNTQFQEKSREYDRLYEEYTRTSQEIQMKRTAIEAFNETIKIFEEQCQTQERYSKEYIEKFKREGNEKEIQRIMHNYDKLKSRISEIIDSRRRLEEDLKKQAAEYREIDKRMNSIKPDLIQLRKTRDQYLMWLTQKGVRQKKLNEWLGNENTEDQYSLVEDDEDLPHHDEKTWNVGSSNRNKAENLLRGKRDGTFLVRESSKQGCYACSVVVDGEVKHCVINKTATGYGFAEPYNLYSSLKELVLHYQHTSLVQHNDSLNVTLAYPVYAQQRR

| Structure (SMILES) | inhibition at 0.5 µM (PI3K alpha; [1]) [%] | inhibition at 0.5 µM (PI3K alpha; [2]) [%] | inhibition at 10 µM (MDA-MB231 Cell line) [%] | inhibition at 10 µM (MCF-7 Cell line) [%] | inhibition at 10 µM (PC-3 Cell line) [%] | In vitro PI3K α % of inhibition (PI3K alpha) |
| --- | --- | --- | --- | --- | --- | --- |
| COc1ccc(NC2CCN(c3nc(N4CCOCC4)nc(-n4c(C(F)F)nc5ccccc54)n3)CC2)cc1 [1B24, 1-(4-(2-(difluoromethyl)-1H-benzo[d]imidazol-1-yl)-6-morpholino-1,3,5-triazin-2-yl)-N-(4-methoxyphenyl)piperidin-4-amine] | > 70 | > 70 | 30 to 50 |  |  |  |
| FC(F)c1nc2ccccc2n1-c1nc(N2CCOCC2)nc(N2CCC(Oc3ccccc3Cl)CC2)n1 [1B7, 4-(4-(4-(2-chlorophenoxy)piperidin-1-yl)-6-(2-(difluoromethyl)-1H-benzo[d]imidazol-1-yl)-1,3,5-triazin-2-yl)morpholine] | 50 to 70 |  | 30 to 50 | > 50 |  |  |
| O=C(N(c1ccc(F)cc1)c1nc(N2CCOCC2)nc(N2CCC(Oc3ccccc3)CC2)n1)C(F)(F)F [1A5, 2,2,2-trifluoro-N-(4-fluorophenyl)-N-(4-morpholino-6-(4-phenoxypiperidin-1-yl)-1,3,5-triazin-2-yl)acetamide] | > 70 | > 70 | 30 to 50 | 30 to 50 | > 50 |  |
| Fc1ccc(OC2CCN(c3nc(N4CCOCC4)nc(-n4c(C(F)F)nc5ccccc54)n3)CC2)cc1 [1B1, 4-(4-(2-(difluoromethyl)-1H-benzo[d]imidazol-1-yl)-6-(4-(4-fluorophenoxy)piperidin-1-yl)-1,3,5-triazin-2-yl)morpholine] | > 70 | > 70 | > 50 | > 50 | > 50 |  |
| FC(F)c1nc2ccccc2n1-c1nc(N2CCOCC2)nc(N2CCC(Nc3ccc(OC(F)(F)F)cc3)CC2)n1 [1B23, 1-(4-(2-(difluoromethyl)-1H-benzo[d]imidazol-1-yl)-6-morpholino-1,3,5-triazin-2-yl)-N-(4-(trifluoromethoxy)phenyl)piperidin-4-amine] | > 70 | > 70 |  | 30 to 50 | 30 to 50 |  |
| FC(F)c1nc2ccccc2n1-c1nc(N2CCOCC2)nc(N2CCC(Nc3ccc(Cl)c(Cl)c3)CC2)n1 [1B26, N-(3,4-dichlorophenyl)-1-(4-(2-(difluoromethyl)-1H-benzo[d]imidazol-1-yl)-6-morpholino-1,3,5-triazin-2-yl)piperidin-4-amine] | > 70 | > 70 | > 50 | > 50 | 30 to 50 |  |
| Cc1ccccc1OC1CCN(c2nc(N3CCOCC3)nc(-n3c(C(F)F)nc4ccccc43)n2)CC1 [1B12, 4-(4-(2-(difluoromethyl)-1H-benzo[d]imidazol-1-yl)-6-(4-(o-tolyloxy)piperidin-1-yl)-1,3,5-triazin-2-yl)morpholine] | > 70 | > 70 | 30 to 50 | > 50 | 30 to 50 |  |
| FC(F)c1nc2ccccc2n1-c1nc(N2CCOCC2)nc(N2CCC(Oc3ccc(Cl)cc3)CC2)n1 [1B5, 4-(4-(4-(4-chlorophenoxy)piperidin-1-yl)-6-(2-(difluoromethyl)-1H-benzo[d]imidazol-1-yl)-1,3,5-triazin-2-yl)morpholine] | 50 to 70 |  | 30 to 50 | > 50 |  |  |
| FC(F)c1nc2ccccc2n1-c1nc(N2CCOCC2)nc(N2CCC(Nc3ccc(Br)cc3)CC2)n1 [1B25, N-(4-bromophenyl)-1-(4-(2-(difluoromethyl)-1H-benzo[d]imidazol-1-yl)-6-morpholino-1,3,5-triazin-2-yl)piperidin-4-amine] | > 70 | > 70 |  | > 50 | 30 to 50 |  |
| FC(F)c1nc2ccccc2n1-c1nc(N2CCOCC2)nc(N2CCOCC2)n1 [ZSTK474, reference compound] |  |  | > 50 | > 50 | > 50 | ++ (++ indicates greater than 70% of inhibition) |
| Cc1cccc(OC2CCN(c3nc(N4CCOCC4)nc(-n4c(C(F)F)nc5ccccc54)n3)CC2)c1 [1B11, 4-(4-(2-(difluoromethyl)-1H-benzo[d]imidazol-1-yl)-6-(4-(m-tolyloxy)piperidin-1-yl)-1,3,5-triazin-2-yl)morpholine] | > 70 | > 70 | 30 to 50 |  | > 50 |  |
| Cc1ccc(NC2CCN(c3nc(N4CCOCC4)nc(-n4c(C(F)F)nc5ccccc54)n3)CC2)cc1 [1B30, 1-(4-(2-(difluoromethyl)-1H-benzo[d]imidazol-1-yl)-6-morpholino-1,3,5-triazin-2-yl)-N-(p-tolyl)piperidin-4-amine] | 50 to 70 |  | 30 to 50 | > 50 | 30 to 50 |  |
| COc1ccc(OC2CCN(c3nc(N4CCOCC4)nc(-n4c(C(F)F)nc5ccccc54)n3)CC2)cc1 [1B2, 4-(4-(2-(difluoromethyl)-1H-benzo[d]imidazol-1-yl)-6-(4-(4-methoxyphenoxy)piperidin-1-yl)-1,3,5-triazin-2-yl)morpholine] | 50 to 70 |  | > 50 | > 50 | 30 to 50 |  |
| COc1ccccc1NC1CCN(c2nc(N3CCOCC3)nc(-n3c(C(F)F)nc4ccccc43)n2)CC1 [1B28, 1-(4-(2-(difluoromethyl)-1H-benzo[d]imidazol-1-yl)-6-morpholino-1,3,5-triazin-2-yl)-N-(2-methoxyphenyl)piperidin-4-amine] | > 70 | > 70 |  | > 50 | 30 to 50 |  |
| Fc1ccccc1NC1CCN(c2nc(N3CCOCC3)nc(-n3c(C(F)F)nc4ccccc43)n2)CC1 [1B27, 1-(4-(2-(difluoromethyl)-1H-benzo[d]imidazol-1-yl)-6-morpholino-1,3,5-triazin-2-yl)-N-(2-fluorophenyl)piperidin-4-amine] | 50 to 70 |  | 30 to 50 | > 50 | 30 to 50 |  |
| FC(F)c1nc2ccccc2n1-c1nc(N2CCOCC2)nc(N2CCC(Oc3cccc(Cl)c3)CC2)n1 [1B6, 4-(4-(4-(3-chlorophenoxy)piperidin-1-yl)-6-(2-(difluoromethyl)-1H-benzo[d]imidazol-1-yl)-1,3,5-triazin-2-yl)morpholine] | 50 to 70 |  |  | > 50 | 30 to 50 |  |
| FC(F)c1nc2ccccc2n1-c1nc(N2CCOCC2)nc(N2CCC(Nc3ccc(C(F)(F)F)cc3)CC2)n1 [1B22, 1-(4-(2-(difluoromethyl)-1H-benzo[d]imidazol-1-yl)-6-morpholino-1,3,5-triazin-2-yl)-N-(4-(trifluoromethyl)phenyl)piperidin-4-amine] | 50 to 70 |  |  | 30 to 50 | 30 to 50 |  |
| Cc1ccccc1NC1CCN(c2nc(N3CCOCC3)nc(-n3c(C(F)F)nc4ccccc43)n2)CC1 [1B32, 1-(4-(2-(difluoromethyl)-1H-benzo[d]imidazol-1-yl)-6-morpholino-1,3,5-triazin-2-yl)-N-(o-tolyl)piperidin-4-amine] | 50 to 70 |  | 30 to 50 | > 50 | 30 to 50 |  |
| O=C(N(c1ccccc1)c1nc(N2CCOCC2)nc(N2CCC(Oc3ccc(OC(F)(F)F)cc3)CC2)n1)C(F)(F)F [1A9, 2,2,2-trifluoro-N-(4-morpholino-6-(4-(4-(trifluoromethoxy)phenoxy)piperidin-1-yl)-1,3,5-triazin-2-yl)-N-phenylacetamide] | > 70 | > 70 | > 50 | > 50 | 30 to 50 |  |
